Literature values in patent US20250000823A1, “METHODS AND COMPOSITIONS FOR TREATING CONDITIONS ASSOCIATED WITH CENTRAL HYPOVENTILATION” (APNIMED, INC. (DELAWARE), priority 2021, published 2025).

Test system: patients with OHS
Conditions: acetazolamide alone

## CC(=O)Nc1nnc(S(N)(=O)=O)s1 [Acetazolamide, N-(5-Sulfamoyl-1,3,4-thiadiazol-2-yl)acetamide]
  alveolar ventilation: improve alveolar ventilation
